The values that follow come from US5776433A, “Flunisolide aerosol formulations” (Minnesota Mining and Manufacturing Company, priority 1995, dated 1998).

The format of the data set is physicochemical. The text has this: This intermediate level of solubility can lead to particle size increase of the drug in a suspension formulation. It is well known that particles having a diameter of greater than about 10 μm are not suitable for inhalation to the lung. Therefore particle size increase can threaten the utility of a pharmaceutical aerosol formulation.

SMILES strings stand for the structures.

Turning to `CC1(C)O[C@@H]2C[C@H]3[C@@H]4C[C@H](F)C5=CC(=O)C=C[C@]5(C)[C@H]4[C@@H](O)C[C@]3(C)[C@]2(C(=O)CO)O1` [flunisolide hemihydrate, 6α-fluoro-11β, 16α, 17,21-tetrahydroxypregna-1,4-diene-3,20-dione cyclic 16,17-acetal with acetone], the “solubility in 1:1 blend of HFA 134a and HFA 227” value is “about 0.007 % by weight”; the “solubility in HFA 134a” value was “about 0.006 % by weight”; the “solubility in HFA 227” value is listed as “about 0.004 % by weight”.
